# Assay results reported in patent publication US20170335304A1, “OXIDIZED PROTEIN HYDROLASE ACTIVITY ENHANCING AGENT AND GLYCATION STRESS INHIBITOR” (ARKRAY, Inc., priority 2016, published 2017).
# Assays:
# Type in all cases: biochemical
# [1] = molecular target: AGEs modified bovine serum albumin (AGE-BSA) cross-linked to collagen (Bos taurus, UniProt P02769); test: AGEs Cross-Link Breaking Effect Confirmatory Test (Test 2); settings: cross-link breaking reaction at 37° C. for 18 hours; punicalagin 5 mmol/L
# Chain of AGEs modified bovine serum albumin (AGE-BSA) cross-linked to collagen (P02769 25-607): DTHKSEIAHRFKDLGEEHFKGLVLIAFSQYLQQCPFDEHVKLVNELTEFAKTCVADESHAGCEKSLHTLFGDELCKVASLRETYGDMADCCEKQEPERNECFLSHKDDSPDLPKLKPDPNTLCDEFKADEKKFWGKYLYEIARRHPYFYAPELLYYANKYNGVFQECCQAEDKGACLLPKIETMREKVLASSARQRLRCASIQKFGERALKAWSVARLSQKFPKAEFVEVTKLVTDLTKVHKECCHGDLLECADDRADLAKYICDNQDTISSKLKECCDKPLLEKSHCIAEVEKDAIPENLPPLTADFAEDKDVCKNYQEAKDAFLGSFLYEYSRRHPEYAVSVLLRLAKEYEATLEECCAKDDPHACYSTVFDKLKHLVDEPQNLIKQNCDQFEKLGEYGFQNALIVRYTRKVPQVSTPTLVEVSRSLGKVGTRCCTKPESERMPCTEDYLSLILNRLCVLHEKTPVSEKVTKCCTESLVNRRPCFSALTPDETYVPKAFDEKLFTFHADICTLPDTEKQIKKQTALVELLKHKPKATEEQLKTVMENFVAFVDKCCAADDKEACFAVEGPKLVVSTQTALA
# Procedure: The test was carried out according to the description in Sara Vasan et al. (Nature, 382, pp275-278 (1996)).
# 300 μL/well of SuperBlock T20 (PBS) Blocking Buffer was added to a commercially available 96-well microplate precoated with collagen, which then was reacted at 37° C. for one hour. After the reaction, it was washed with 0.05% polyethylene (20) sorbitan monolaurate (Tween 20)/PBS(-), and then AGEs modified bovine serum albumin (AGE-BSA) was added to each well of the microplate, which then was subjected to a crosslinking reaction at 37° C. for four hours. After the reaction, it was washed with Tween 20/PBS(-). Thereafter, a plant extract was added to each well and thereby it was subjected to a cross-link breaking (cleaving) reaction at 37° C. for 18 hours. After that, it was washed with Tween 20/PBS(-) and a primary antibody (anti-albumin bovine serum rabbit-polyclonal) was added thereto, which then was reacted at room temperature for 30 minutes. […] As a reaction stop solution, 1N HCl was added thereto, and the absorbance at 450 nm (dominant wavelength)/630 nm (complementary wavelength) was measured with a microplate reader. The amount of AGE-BSA that remained was determined from a calibration curve in which the amount of AGE-BSA was varied. Furthermore, the AGE-BSA decomposition rate (Collagen cross-link decomposition rate)was determined using the following formula. […]
# [2] = molecular target: T1, Acylamino-acid releasing enzyme (AARE) (OPH) (Sus scrofa, UniProt P19205); test: OPH Activation Confirmatory Test (Test 2); settings: sample solution 5 mg/ml; 24 hours at 37° C.; relative to Ref without sample; n=3
# T1 construct: purchased Takara Bio Inc
# T1 sequence (P19205 1-732): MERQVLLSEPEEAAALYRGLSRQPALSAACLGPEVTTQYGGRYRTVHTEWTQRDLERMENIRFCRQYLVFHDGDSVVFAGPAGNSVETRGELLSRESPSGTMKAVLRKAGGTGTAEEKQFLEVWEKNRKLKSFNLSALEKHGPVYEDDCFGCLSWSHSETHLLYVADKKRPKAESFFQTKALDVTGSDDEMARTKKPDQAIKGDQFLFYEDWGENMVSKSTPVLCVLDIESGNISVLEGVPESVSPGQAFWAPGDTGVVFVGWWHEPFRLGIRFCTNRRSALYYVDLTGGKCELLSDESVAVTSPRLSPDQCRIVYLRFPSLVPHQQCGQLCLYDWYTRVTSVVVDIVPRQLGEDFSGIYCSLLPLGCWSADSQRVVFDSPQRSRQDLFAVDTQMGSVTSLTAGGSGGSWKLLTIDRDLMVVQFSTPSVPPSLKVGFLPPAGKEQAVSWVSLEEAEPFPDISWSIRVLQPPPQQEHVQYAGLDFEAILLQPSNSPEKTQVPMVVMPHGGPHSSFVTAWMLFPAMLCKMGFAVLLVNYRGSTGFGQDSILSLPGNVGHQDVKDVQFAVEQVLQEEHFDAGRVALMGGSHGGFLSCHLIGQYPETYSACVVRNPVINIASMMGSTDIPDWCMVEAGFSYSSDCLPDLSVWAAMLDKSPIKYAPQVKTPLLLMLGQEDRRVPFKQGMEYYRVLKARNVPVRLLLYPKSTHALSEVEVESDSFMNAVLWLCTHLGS
# Procedure: To each plant indicated in Table 3 below, 15 times its amount of water was added and it was extracted at 100° C. for 30 minutes and then was solid-liquid separated and condensed. Thereafter, it was sterilized at 100° C. or higher for 30 minutes or less, which then was spray-dried. Thus, plant extract powders were obtained.
# Each plant extract powder mentioned above was diluted with distilled water so as to be 5 mg/ml, which then was used as a sample solution. […]
# The OPH Solution, the AAPA solution, and the sample solution (5 mg/mi) were mixed together to be added to each well of a 96-well microplate and then were reacted for 24 hours in an incubator set at 37° C. The absorbance at 405 nm of each reaction solution was measured with a microplate reader.
# The enzyme activity of the OPH was determined as variation in absorbance (reaction rate) per hour (the OPH reaction rate of the sample). On the other hand, as a reference (Ref), the same measurement was carried out without adding the sample solution and then the reaction rate was determined (the OPH reaction rate of Ref). Using the OPH reaction rate of the sample and the OPH reaction rate of Ref, the OPH activation rate (%) was calculated from the following formula (n=3). […]
# [3] = AGEs Cross-link Breaking Effect Confirmatory Test (Test 1); settings: 10 mmol/L PPD, pH 7.4, 37° C., eight hours; n=3; PTB 10 mmol/L
# Procedure: The test was carried out according to the description in […] al. (Nature, 382, pp275-278 (1996)). […] A plant extract, 10 mmol/L of PPD, and 0.2 mol/L of phosphate buffer solution (pH 7.4) were mixed together at a ratio of 5:1:4 and then were reacted at 37° C. for eight hours (n=3). After completion of the reaction, hydrochloric acid was added thereto to stop the reaction and thus a reaction solution was obtained. […] The amount of benzoic acid contained in the reaction solution was determined by subtracting the amount of benzoic acid contained in the plant extract, which was measured separately. Since 1 mol of PPD produces 1 mol of benzoic acid, the cross-link breaking rate was calculated by the following formula. Cross-link breaking rate (%)={(A-B)/C}×100 • A: The amount of benzoic acid contained in the reaction solution • B: The amount of benzoic acid contained in the plant extract • C: The amount of PPD provided for the reaction (the amount of the substrate) As a control, a test was carried out using 10 mmol/L of PTB instead of the plant extract.
# [4] = AGEs Cross-Link Breaking Effect Confirmatory Test (Test 3); settings: same measurement as Test 1, mixture solid content 7.42 mg/mL
# Procedure: A plant extract, 10 mmol/L of PPD, and 0.2 mol/L of phosphate buffer solution (pH 7.4) were mixed together at a ratio of 5:1:4 and then were reacted at 37° C. for eight hours (n=3). After completion of the reaction, hydrochloric acid was added thereto to stop the reaction and thus a reaction solution was obtained. […] The amount of benzoic acid contained in the reaction solution was determined by subtracting the amount of benzoic acid contained in the plant extract, which was measured separately. Since 1 mol of PPD produces 1 mol of benzoic acid, the cross-link breaking rate was calculated by the following formula. Cross-link breaking rate (%)={(A−B)/C}×100 • A: The amount of benzoic acid contained in the reaction solution • B: The amount of benzoic acid contained in the plant extract • C: The amount of PPD provided for the reaction (the amount of the substrate) As a control, a test was carried out using 10 mmol/L of PTB instead of the plant extract. The same measurement as in the AGEs cross-link breaking effect confirmatory test (Test 1) was carried out except for using a mixture of plant extracts indicated in Table 6 below.
compound,measurement,setting,value
O=C1O[C@H]2[C@@H]3OC(=O)c4cc(O)c(O)c(O)c4-c4c(O)c(O)c5oc(=O)c6c(c(O)c(O)c7oc(=O)c4c5c76)-c4c(cc(O)c(O)c4O)C(=O)OC[C@H]3OC(O)[C@@H]2OC(=O)c2cc(O)c(O)c(O)c2-c2c1cc(O)c(O)c2O (mixture of isomers) [Punicalagin],Amount of Remaining AGE-BSA,[1],343.3 ng
same,Collagen Cross-Link Decomposition Rate (%),[1],65.7%
"O=C(O[C@@H]1Cc2c(O)cc(O)cc2O[C@@H]1c1cc(O)c(O)c(O)c1)c1cc(O)c(O)c(O)c1 [EGCg, Epigallocatechin gallate]",OPH Activation Rate (%) (Mean Value ± Standard Deviation),[2],15.5 ± 3.2%
"O=C(C[n+]1ccsc1)c1ccccc1.[Br-] [PTB, N-phenacylthiazolium bromide]",Cross-Link Breaking Rate (%) (Mean Value ± Standard Deviation),[3],20.47 ± 0.29%
same,Cross-Link Breaking Rate (%) (Mean Value ± Standard Deviation),[4],25.34 ± 0.19%
